Source: ChEMBL document CHEMBL5528041, “Ferroptosis-Based Therapeutic Strategies toward Precision Medicine for Cancer” (J Med Chem, 2024)
Converted amounts (≈) assume the structure as drawn. Each block holds one compound with its values, some of them ahead of it.

Assays:
HT-29 [1] = assay: Antiproliferative activity against human HT-29 cells assessed as inhibition of cell growth measured after 48 hrs by SRB assay; type: functional, cell-based; conditions: HT-29, 48 h
[2] = Antiproliferative activity against human CRC cells assessed as reduction in cell viability incubated for 48 hrs by MTT assay; type: functional, cell-based
HCT-116 [3] = assay: Antiproliferative activity against human HCT-116 cells assessed as reduction in cell growth incubated for 48 hrs by MTT assay; type: functional, cell-based; conditions: HCT-116, 48 h
ID8 = assay: Cytotoxicity against mouse ID8 cells assessed as inhibition of cell viability measured after 24 hrs by MTT assay; type: functional, cell-based; conditions: ID8, 24 h
B16 = assay: Cytotoxicity against mouse B16 cells assessed as inhibition of cell viability measured after 24 hrs by MTT assay; type: functional, cell-based; conditions: B16, 24 h
[4] = Cytotoxicity against mouse Hepa-1 cells assessed as reduction in cell viability incubated for 24 hrs by MTS assay; type: functional, cell-based; conditions: Hepa-1, 24 h
Hepa 1-6 = assay: Cytotoxicity against mouse Hepa1-6 cells assessed as inhibition of cell growth incubated for 24 hrs by MTT assay; type: functional, cell-based; conditions: Hepa1-6, 24 h
MC-38 = assay: Cytotoxicity against mouse MC-38 cells assessed as reduction in cell viability incubated for 24 hrs by MTS assay; type: functional, cell-based; conditions: MC-38, 24 h
HCT-116 [5] = assay: Antiproliferative activity against human HCT-116 cells assessed as reduction in cell viability incubated for 48 hrs by WST-1 assay; type: functional, cell-based; conditions: HCT-116, 48 h
HT-29 [6] = assay: Antiproliferative activity against human HT-29 cells assessed as reduction in cell viability measured after 48 hrs by WST-1 assay; type: functional, cell-based; conditions: HT-29, 48 h
MDA-MB-231 = assay: Antiproliferative activity against human MDA-MB-231 cells assessed as inhibition of cell viability measured after 72 hrs by MTT assay; type: functional, cell-based; conditions: MDA-MB-231, 72 h
PANC-1 = assay: Antiproliferative activity against human PANC-1 cells assessed as reduction in cell viability incubated for 48 hrs by resazurin dye based cell titer-blue viability assay; type: functional; conditions: PANC-1, 48 h
ASPC1 = assay: Cytotoxicity against human ASPC1 cells assessed as inhibition of cell growth by SRB assay; type: functional, cell-based
BXPC-3 = assay: Antiproliferative activity against human BXPC-3 cells assessed as inhibition of cell proliferation treated for 72 hrs by resazurin dye-based fluorescence assay; type: functional; conditions: BXPC-3, 72 h
Panc1005 = assay: Antiproliferative activity against human Panc1005 cells assessed as reduction in cell growth incubated for 72 hrs by Cell titer-Glo luminescent cell viability assay; type: functional, cell-based; conditions: Panc1005, 72 h
Huh-7 = assay: Cytotoxicity against human Huh-7 cells assessed as reduction in cell viability incubated for 72 hrs by MTT assay; type: functional, cell-based; conditions: Huh-7, 72 h
[7] = Antiproliferative activity against human HCCM-5 cells assessed as reduction in cell viability measured after 72 hrs by MTT assay; type: functional, cell-based; conditions: HCCM-5, 72 h

Structure (SMILES): CC(C)=CC/C=C(\C)[C@H]1CC[C@]2(C)[C@@H]1[C@H](O)C[C@@H]1[C@@]3(C)CC[C@H](O)C(C)(C)[C@@H]3[C@@H](O[C@@H]3O[C@H](CO)[C@@H](O)[C@H](O)[C@H]3O)C[C@]12C [GINSENOSIDE RH4]
- IC50 (HT-29 [1]): 197 µM
- IC50 [2]: 197 µM
- IC50 (HCT-116 [3]): 178 µM

Structure (SMILES): CCOc1ccccc1-n1c(C(C)N2CCN(C(=O)COc3ccc(Cl)cc3)CC2)nc2ccccc2c1=O (configuration not stated) [ERASTIN]
- IC50 (ID8): 1.2 µM
- IC50 (B16): 5 µM
- IC50 [4]: 0.5 µM
- IC50 (Hepa 1-6): 0.5 µM
- IC50 (MC-38): 0.5 µM

Structure (SMILES): C/C=C/C#CC#C/C=C/c1ccco1
- IC50 (Huh-7): 22.4 µM
- IC50 [7]: 59.7 µM

Now from value to compound, other results behind:

- IC50 (HCT-116 [5]): 19 µg/mL (≈ 54.2 µM)
- IC50 (HT-29 [6]): 10 µg/mL (≈ 28.5 µM)
Structure (SMILES): C=C1CC[C@@H]2[C@](C)(CO)[C@H](O)CC[C@@]2(C)[C@@H]1C/C=C1/C(=O)OC[C@H]1O [ANDROGRAPHOLIDE]

- IC50 (MDA-MB-231): 10.6 µM
Structure (SMILES): N#Cc1ccc(C(=O)/C=C/c2ccccc2Oc2ccccc2C=O)cc1

- IC50 (PANC-1): 0.59 µM
- IC50 (BXPC-3): 0.59 µM
- IC50 (Panc1005): 0.59 µM
Structure (SMILES): Oc1c([C@@H](Nc2ccccn2)c2cccc(Cl)c2Cl)ccc2cccnc12
- IC50 (ASPC1): 0.59 µM
